Assay results taken from patent publication US20090111895A1, “ENHANCED DIALDEHYDE DISINFECTANT AND STERILIZATION FORMULATIONS” (Ethicon, Inc., priority 2007, published 2009).

What was measured:
[1] = system: Bacillus subtilis (ATCC 19659) spores; test: Bacillus subtilis sporicidal suspension test; assay type: cell-based; conditions: 20° C.; for enhancement of the sporicidal activity of ortho-phthalaldehyde (in words): Tables 2-4, 0.3 wt. % ortho-phthalaldehyde; for enhancement of the sporicidal activity of ortho-phthalaldehyde (in words) / sporicidal activity (in words): 5 hours; for sporicidal activity (in words): Table 1 results
Method: The phrase “Bacillus subtilis sporicidal suspension test”, when used in the appended claims means a determination of the sporicidal activity of a dialdehyde calculated as a log reduction of Bacillus subtilis bacterial spores. The test is performed according to Example 1 by treatment of Bacillus subtilis bacterial spores with a formulation consisting of the dialdehyde to be tested in water. The log10 reduction/mL is calculated from log N0−log Ni where N0 represent the number of organisms (cfu/mL) at time zero; and Ni represent the number of surviving organism (cfu/mL) at designated exposure time.
Several ortho-phthalaldehyde based germicidal solutions were tested to determine their effectiveness in killing Bacillus subtilis (ATCC 19659) spores using the Bacillus subtilis sporicidal suspension test.
For preparation of the inoculating spore test suspension, a 1 ml aliquot of the spore harvest was serial diluted with sterile water to produce a spore suspension of approximately 1×10^7 cfu ml.
Test solutions of ortho-phthalaldehyde/acetate were prepared by mixing acetate with CIDEX® OPA (which is a 0.55% solution of ortho-phthalaldehyde in water around pH 7.3, commercially available from Advanced Sterilization Products, a Johnson & Johnson Company) and diluted to levels indicated in Table 1.
The 1 ml aliquots of spore suspensions were exposed to 9 ml of ortho-phthalaldehyde solution at 20° C. The pHs of the tested solutions were adjusted to 7.3-7.5.
The experiments were performed using the suspension test, which involved adding 1 ml of 10^7 spores to sterile test tubes containing 9 ml of the challenge solution. The resulting test sample spore concentration was 10^6 cfu /ml. The tubes containing the test suspension/spores were vortex briefly to allow for mixing of the solution/spores. At the end of each of the appropriate exposure time at 20° C., 1 ml aliquots of the solution/spores mixture were aseptically transferred to sterile filtration units containing 0.45μ membrane filters with 100 ml of neutralizer solution (1% w/v glycine solution). The solutions were filtered and the membrane filters were rinsed again with 100 ml of neutralizers solution. The membrane filters were then individually transferred onto the surface of commercially available sterile Tryptic Soy Agar plates. The plates were incubated at 37° C. for 48 hours. After incubation, the number of survivors were determined for each test sample/exposure time.
The log10 reduction/mL is calculated from log N0−log Ni where N0 represent the number of organism (cfu/mL) at time zero; and Ni represent the number of surviving organism (cfu/mL) at designated exposure time.
In addition to acetate, several mixtures of ortho-phthalaldehyde with different carboxylates such as chloroacetate and propionate were also tested using the protocol described above in Example 1.
Benzoate was evaluated for its ability to enhance the sporicidal activity of ortho-phthalaldehyde using the protocol described above in Example 1. The pHs of all solutions were adjusted to neutral, 7.3-7.5.
Spore suspension tests with five germicide solutions containing 2.4% glutaraldehyde with various amounts of acetate ranging from 0 to 7% were conducted at 20° C. for 4 hours with Bacillus using the protocol described above in Example 1. The pHs of the solutions were adjusted to 8.2-8.9, which is the typical pH range for glutaraldehyde disinfecting solutions.

spores of B. subtilis = conditions: cited from earlier work
Bacillus subtilis spores = test: Time kill assay; assay type: cell-based; conditions: Table 6; 0.3% ortho-phthalaldehyde, 20° C.
Method: Test solutions were prepared by mixing acetate with ortho-phthalaldehyde (if applicable) and the solutions were adjusted to pH 7.2. The solutions were then challenged with 10^6 per ml of Bacillus subtilis spores at 20° C. (room temperature). At each predetermined exposure time, samples from each of the test solutions were tested/assayed for survivors.

Structure (SMILES) | enhancement of the sporicidal activity of ortho-phthalaldehyde (in words) [1] | sporicidal activity (in words) [1] | further results
O=C(O)c1ccccc1 [benzoate] | enhances ortho-phthalaldehyde sporicidal efficacy when the benzoate concentration is above about 3% | – | –
O=Cc1ccccc1C=O [ortho-phthalaldehyde, reference compound] | – | does not have significant sporicidal activity | activity against spores of B. subtilis (in words) (spores of B. subtilis): relatively ineffective against spores of B. subtilis
CCC(=O)O [propionate] | significantly enhance the sporicidal activity of ortho-phthalaldehyde | – | –
O=C(O)CCl [chloroacetate] | significantly enhance the sporicidal activity of ortho-phthalaldehyde | – | –
CC(=O)[O-].[K+] [acetate, potassium acetate] | – | does not have significant sporicidal activity | enhancement of the sporicidal activity of ortho-phthalaldehyde (in words) (Bacillus subtilis spores): the sporicidal activity of ortho-phthalaldehyde is significantly enhanced; enhancement of the sporicidal activity of glutaraldehyde (in words) ([1]; Table 5, 2.4% glutaraldehyde, 4 hours): the sporicidal activity of glutaraldehyde is significantly enhanced
